Values of other authors, collected in patent publication US8133908B2, “Heteroaryl derivatives of N-{[(1S,4S,6S)-3-(2-pyridinylcarbonyl)-3-azabicyclo[4.1.0]hept-4-yl]methyl}-2-amine” (Glaxo Group Limited, priority 2008, dated 2012).
No end group written: not given here.

What was measured:
[1] = tested on: orexin receptor; conditions: rats
[2] = tested on: orexin-A receptor(s); conditions: central administration, freely-feeding rats, 4 hour time period
[3] = tested on: orexin receptors; conditions: rats, central administration at the onset of the normal sleep period

Row | Molecule | hedonic eating [1] | high-fat pellet self-administration [1] | increase of food intake over control rats receiving vehicle [2] | arousal [3]
1 | Cc1nc2ccc(NC(=O)Nc3ccnc4cccnc34)cc2o1 [SB334867] | potently reduced | attenuated |  | 
2 | orexin-A: ligand for the orexin-1 receptor; an agonist of the orexin receptors (QPLPDCCRQKTCSCRLYELLHGAGNHAAGILTL; ends and bridges not checked; cysteine pairing not given here; UniProt O43612 34-66, looked up) |  |  | approximately four-fold | dose-related increase in arousal
